Assay [1] concerns the target T1, Tyrosine-protein kinase ZAP-70 (Homo sapiens) (UniProt P43403).
T1 sequence (whole entry): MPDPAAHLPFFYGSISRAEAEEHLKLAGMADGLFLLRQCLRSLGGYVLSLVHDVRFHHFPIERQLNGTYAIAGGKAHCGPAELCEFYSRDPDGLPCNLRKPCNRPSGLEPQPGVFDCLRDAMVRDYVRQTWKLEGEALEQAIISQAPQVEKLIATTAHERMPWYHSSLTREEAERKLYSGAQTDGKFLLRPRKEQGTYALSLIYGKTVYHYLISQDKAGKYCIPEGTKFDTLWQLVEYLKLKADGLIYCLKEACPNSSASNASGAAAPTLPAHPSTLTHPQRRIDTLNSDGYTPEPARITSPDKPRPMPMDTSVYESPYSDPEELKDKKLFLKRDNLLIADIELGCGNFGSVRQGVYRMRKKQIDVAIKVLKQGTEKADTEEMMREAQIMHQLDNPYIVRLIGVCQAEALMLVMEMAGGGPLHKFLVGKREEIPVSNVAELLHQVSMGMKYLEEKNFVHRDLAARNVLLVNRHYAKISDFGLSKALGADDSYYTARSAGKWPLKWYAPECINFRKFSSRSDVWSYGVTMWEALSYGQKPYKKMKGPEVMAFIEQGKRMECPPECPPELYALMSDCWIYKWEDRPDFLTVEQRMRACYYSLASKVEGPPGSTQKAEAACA
The experiment in a line: Inhibition of human ZAP70 at 500 nM by HotSpot assay relative to control.

The target of assay [2] is Mitogen-activated protein kinase kinase kinase 9 (Homo sapiens) (UniProt P80192). Kind of assay: Inhibition of human MAP3K9 at 500 nM by HotSpot assay relative to control.
Sequence of Mitogen-activated protein kinase kinase kinase 9 (Homo sapiens) (P80192 whole entry, looked up): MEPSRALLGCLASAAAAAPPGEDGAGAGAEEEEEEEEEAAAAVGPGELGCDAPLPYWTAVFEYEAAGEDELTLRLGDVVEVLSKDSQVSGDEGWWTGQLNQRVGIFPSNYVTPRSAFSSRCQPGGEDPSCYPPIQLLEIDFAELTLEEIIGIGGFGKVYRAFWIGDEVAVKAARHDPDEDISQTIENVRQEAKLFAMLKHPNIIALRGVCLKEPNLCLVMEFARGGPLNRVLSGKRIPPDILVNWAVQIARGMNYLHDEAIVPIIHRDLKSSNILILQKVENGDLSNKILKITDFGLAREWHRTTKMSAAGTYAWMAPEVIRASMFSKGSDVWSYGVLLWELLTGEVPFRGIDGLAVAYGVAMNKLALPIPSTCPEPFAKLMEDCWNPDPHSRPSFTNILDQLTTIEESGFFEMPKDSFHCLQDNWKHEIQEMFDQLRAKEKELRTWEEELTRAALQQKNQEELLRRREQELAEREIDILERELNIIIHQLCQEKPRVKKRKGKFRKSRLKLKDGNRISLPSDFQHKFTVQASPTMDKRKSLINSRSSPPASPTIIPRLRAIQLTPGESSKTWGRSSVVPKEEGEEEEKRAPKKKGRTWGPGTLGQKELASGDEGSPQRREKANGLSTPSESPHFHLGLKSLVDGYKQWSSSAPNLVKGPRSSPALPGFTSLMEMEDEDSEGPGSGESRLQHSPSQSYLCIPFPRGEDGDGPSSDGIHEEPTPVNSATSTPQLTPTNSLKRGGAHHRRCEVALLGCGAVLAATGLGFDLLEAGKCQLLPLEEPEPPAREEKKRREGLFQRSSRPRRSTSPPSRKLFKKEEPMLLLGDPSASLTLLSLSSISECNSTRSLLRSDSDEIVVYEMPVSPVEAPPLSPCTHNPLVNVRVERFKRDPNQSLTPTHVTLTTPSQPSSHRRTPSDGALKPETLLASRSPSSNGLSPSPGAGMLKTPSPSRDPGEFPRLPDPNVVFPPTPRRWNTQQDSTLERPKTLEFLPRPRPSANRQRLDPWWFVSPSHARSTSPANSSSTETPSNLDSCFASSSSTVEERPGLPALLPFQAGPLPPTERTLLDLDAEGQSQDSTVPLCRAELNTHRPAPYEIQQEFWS
In assay [3] the target is Tyrosine-protein kinase CSK (Homo sapiens) (UniProt P41240). Kind of assay: Inhibition of human CSK at 500 nM by HotSpot assay relative to control.
Sequence of Tyrosine-protein kinase CSK (Homo sapiens) (P41240 2-450 limits assumed): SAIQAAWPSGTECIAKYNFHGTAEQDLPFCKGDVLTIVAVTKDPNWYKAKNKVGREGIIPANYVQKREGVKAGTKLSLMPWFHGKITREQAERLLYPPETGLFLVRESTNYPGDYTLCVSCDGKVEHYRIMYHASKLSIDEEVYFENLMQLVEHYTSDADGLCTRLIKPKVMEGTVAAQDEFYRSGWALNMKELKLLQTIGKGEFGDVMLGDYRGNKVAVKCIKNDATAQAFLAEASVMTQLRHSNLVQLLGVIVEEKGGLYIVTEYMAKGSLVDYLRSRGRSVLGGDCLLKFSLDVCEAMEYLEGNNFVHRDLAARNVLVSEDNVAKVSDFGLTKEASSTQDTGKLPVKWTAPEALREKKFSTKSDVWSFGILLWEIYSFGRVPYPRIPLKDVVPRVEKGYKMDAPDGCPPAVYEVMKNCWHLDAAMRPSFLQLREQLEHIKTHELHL
The target of assay [4] is T2, Serine/threonine-protein kinase D2 (Homo sapiens) (UniProt Q9BZL6).
T2 sequence (whole entry): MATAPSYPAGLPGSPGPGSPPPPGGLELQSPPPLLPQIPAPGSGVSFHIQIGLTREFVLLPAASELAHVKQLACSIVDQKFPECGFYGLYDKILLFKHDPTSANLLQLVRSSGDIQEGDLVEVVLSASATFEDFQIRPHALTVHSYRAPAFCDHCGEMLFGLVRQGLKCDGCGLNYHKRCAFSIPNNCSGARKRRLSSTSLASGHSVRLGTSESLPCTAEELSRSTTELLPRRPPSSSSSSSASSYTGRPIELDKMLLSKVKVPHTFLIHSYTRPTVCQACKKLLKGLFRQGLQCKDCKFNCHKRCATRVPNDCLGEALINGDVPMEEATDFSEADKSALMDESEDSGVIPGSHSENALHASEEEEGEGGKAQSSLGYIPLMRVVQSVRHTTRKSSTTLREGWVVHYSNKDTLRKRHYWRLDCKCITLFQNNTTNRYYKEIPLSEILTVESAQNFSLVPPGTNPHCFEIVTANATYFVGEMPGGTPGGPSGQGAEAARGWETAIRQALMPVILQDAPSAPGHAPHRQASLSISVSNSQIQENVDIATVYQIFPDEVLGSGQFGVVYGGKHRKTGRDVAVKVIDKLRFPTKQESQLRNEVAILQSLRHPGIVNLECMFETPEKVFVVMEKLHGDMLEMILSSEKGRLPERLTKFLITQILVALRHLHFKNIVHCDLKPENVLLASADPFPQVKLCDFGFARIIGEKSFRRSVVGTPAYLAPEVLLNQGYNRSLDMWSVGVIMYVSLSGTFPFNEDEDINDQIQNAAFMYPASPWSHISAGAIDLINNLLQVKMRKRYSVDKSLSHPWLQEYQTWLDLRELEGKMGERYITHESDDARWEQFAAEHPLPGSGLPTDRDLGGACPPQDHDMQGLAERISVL
Kind of assay: Inhibition of human PRKD2 at 500 nM by HotSpot assay relative to control.

In assay [5] the target is T3, Protein kinase C iota type (Homo sapiens) (UniProt P41743).
T3 sequence (whole entry): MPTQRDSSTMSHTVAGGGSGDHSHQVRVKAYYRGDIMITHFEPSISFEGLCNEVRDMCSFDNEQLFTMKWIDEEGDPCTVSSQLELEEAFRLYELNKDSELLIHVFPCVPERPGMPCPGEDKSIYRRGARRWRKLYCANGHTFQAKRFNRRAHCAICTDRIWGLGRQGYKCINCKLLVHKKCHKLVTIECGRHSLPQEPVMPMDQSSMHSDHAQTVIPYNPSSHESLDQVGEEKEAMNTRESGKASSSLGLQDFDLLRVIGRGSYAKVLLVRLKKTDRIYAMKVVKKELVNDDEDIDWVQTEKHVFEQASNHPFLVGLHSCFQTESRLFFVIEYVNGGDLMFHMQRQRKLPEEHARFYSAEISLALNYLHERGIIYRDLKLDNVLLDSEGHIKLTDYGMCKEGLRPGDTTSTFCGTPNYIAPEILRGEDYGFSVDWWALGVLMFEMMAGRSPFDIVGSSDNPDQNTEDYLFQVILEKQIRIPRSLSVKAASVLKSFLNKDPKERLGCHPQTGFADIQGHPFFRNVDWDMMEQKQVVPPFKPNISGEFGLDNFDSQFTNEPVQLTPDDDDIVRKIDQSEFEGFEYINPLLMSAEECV
Kind of assay: Inhibition of human PKCiota at 500 nM by HotSpot assay relative to control.

In the case of `Nc1n[nH]c2nnc(-c3c(-c4ccccc4)nn4ccccc34)cc12`, the inhibition in assay [1] worked out at 9.86%; in assay [2], 0.07%; in assay [3], 1.98%; in assay [4], 45.9%; in assay [5], 1.7%.
For `Oc1n[nH]c2nnc(-c3c(-c4ccccc4)nn4ccccc34)cc12`, in that order: 5.7%, -2.83%, -1.06%, 2.86% and 1.33%.

One may read the inhibition as the change of the read-out against control, counted positive when it falls.

The record behind these values is ChEMBL document CHEMBL5653615 (J Biol Chem, 2013).
